# Experimental data published in ChEMBL document CHEMBL4622910, “Design, synthesis and evaluation of pyrazolopyrimidinone derivatives as novel PDE9A inhibitors for treatment of Alzheimer's disease” (Bioorg Med Chem Lett, 2020).
# Key:
# [1] = Solubility of the compound in water; format: physicochemical
# Homo sapiens [2] = species: Homo sapiens; assay: Selectivity for PDE5 (unknown origin) over PDE9 (unknown origin)
# Homo sapiens [3] = species: Homo sapiens; assay: Selectivity for PDE1 (unknown origin) over PDE9 (unknown origin)
# [4] = Hepatic clearance in rat liver microsomes; format: ADME, Microsome
# [5] = Metabolic stability in rat liver microsomes; format: ADME, Microsome
# [6] = Half life in rat liver microsomes; format: ADME, Microsome
Compound,solubility [1],CLH [4],t1/2 [6],further results
C[C@@H](Nc1nc2c(cnn2C2CCCC2)c(=O)[nH]1)C(=O)Nc1ccc(C(F)(F)F)nc1,5.1 µg/mL,–,–,–
CC(Nc1nc2c(cnn2C2CCCC2)c(=O)[nH]1)c1ccc(Cl)cc1 (stereo unspecified),–,–,–,Selectivity ratio (Homo sapiens [2]): 31; Selectivity ratio (Homo sapiens [3]): 46
C[C@@H](Nc1nc2c(cnn2C2CCCC2)c(=O)[nH]1)C(=O)Nc1ccc2[nH]ccc2c1,0.1 µg/mL,–,–,–
C[C@@H](Nc1nc2c(cnn2C2CCCC2)c(=O)[nH]1)C(=O)Nc1ccc2nccn2c1,74 µg/mL,11.8 mL/min/kg,32.6 min,Stability [5]: 40.8%
C[C@@H](Nc1nc2c(cnn2C2CCCC2)c(=O)[nH]1)C(=O)Nc1ccc(C(F)(F)F)cn1,6.3 µg/mL,–,–,–
C[C@@H](Nc1nc2c(cnn2C2CCCC2)c(=O)[nH]1)C(=O)Nc1ccc(F)nc1,52 µg/mL,11.8 mL/min/kg,32.8 min,Stability [5]: 41%
C[C@@H](Nc1nc2c(cnn2C2CCCC2)c(=O)[nH]1)C(=O)Nc1ccc2[nH]ncc2c1,103 µg/mL,10 mL/min/kg,43.4 min,Stability [5]: 47.8%
C[C@@H](Nc1nc2c(cnn2C2CCCC2)c(=O)[nH]1)C(=O)NC1=NCCS1,0.03 µg/mL,–,–,–
C[C@@H](Nc1nc2c(cnn2C2CCCC2)c(=O)[nH]1)C(=O)Nc1ccncc1,20 µg/mL,–,–,–

# The next lines start with results.
solubility [1],CLH [4],t1/2 [6],Compound,further results
0.5 µg/mL,–,–,C[C@@H](Nc1nc2c(cnn2C2CCCC2)c(=O)[nH]1)C(=O)Nc1cnc(Cl)nc1,–
195 µg/mL,9.07 mL/min/kg,57 min,C[C@@H](Nc1nc2c(cnn2C2CCCC2)c(=O)[nH]1)C(=O)Nc1ccc2[nH]cnc2c1,Stability [5]: 54.7%
0.04 µg/mL,65.8 mL/min/kg,23.3 min,COc1ccc(NC(=O)[C@@H](C)Nc2nc3c(cnn3C3CCCC3)c(=O)[nH]2)cc1,–
25 µg/mL,–,–,C[C@@H](Nc1nc2c(cnn2C2CCCC2)c(=O)[nH]1)C(=O)Nc1nccs1,–
6 µg/mL,–,–,C[C@@H](Nc1nc2c(cnn2C2CCCC2)c(=O)[nH]1)C(=O)Nc1ccc2c(c1)CCC2=O,–
0.1 µg/mL,–,–,C[C@@H](Nc1nc2c(cnn2C2CCCC2)c(=O)[nH]1)C(=O)Nc1ccc2c(c1)CNC2=O,–
0.03 µg/mL,–,–,C[C@@H](Nc1nc2c(cnn2C2CCCC2)c(=O)[nH]1)C(=O)Nc1ccc2c(c1)COC2,–
